# Read-outs that look alike come from different tables or passages of the source.
# Experiments:
# U2OS = assay: Cell viability, CellTiter-Glo assay, U2OS; assay type: cell-based
# Method: (§1) The viability of screened cancer cells was recorded using a luminescence-based CellTiter-Glo® assay for the ATP quantification. The screening concentration of the molecule ranged from 100/10 μM to 45/4.5 nM with an 8-point-3-fold dilution series in DMEM media (>0.1% DMSO as control). Each experiment was conducted in more than two biological replicates with three technical replicates. The error bar is a representation of standard deviation among the technical replicates.
# as §1, with “IITK3002” for “the molecule”, “10” for “100/10”, “4.5” for “45/4.5”
# (§2) a. […] In parallel, we have also synthesized the bromoacetamide (IITK3002) version of the lead molecules which is slightly more reactive with thiol nucleophiles when compared to chlorooacetamide warheads as depicted in FIG. 13. […] In addition, we also evaluated the molecules' antiproliferative potency against a panel of twelve different cancer phenotypes. The set of cancer cell lines included liver, breast, colon, myeloma, bone, blood, skin, brain and prostate lineages (FIG. 2, 3, Table 1).
# PC3 = assay: Cell viability, CellTiter-Glo assay, PC3; assay type: cell-based
# Method: as §1
# as §1, with “IITK3002” for “the molecule”, “10” for “100/10”, “4.5” for “45/4.5”
# as §2
# A549 = assay: Cell viability, A549; assay type: cell-based; conditions: Homo sapiens
# Huh-7 cells = assay: Cell viability, luminescence-based CellTiter-Glo assay, Huh-7 cells
# In short: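 ATP-based CellTiter-Glo luminescence in Huh-7 cells in DMEM, with DMSO (>0.1%) as control. Single-point screens used 10 μM compound with or without Fer-1 (10 μM); dose responses used 8-point 3-fold dilutions from 100/10 μM to 45/4.5 nM. More than two biological replicates with three technical replicates each.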
# 22Rv1 = assay: Cell viability, CellTiter-Glo assay, 22Rv1; assay type: cell-based
# Method: as §1
# as §1, with “IITK3002” for “the molecule”, “10” for “100/10”, “4.5” for “45/4.5”
# as §2
# [1] = Homo sapiens, PC-3, PC3, cell viability
# [2] = Homo sapiens, Huh-7, Huh-7 cells, antiproliferative activity, read-out: EC50 in Huh-7 cells
# [3] = Homo sapiens, Huh-7, Huh-7 cells, cell viability, read-out: EC50 Huh-7
# [4] = Huh-7 cells, cell viability, read-out: EC50 Huh-7
# [5] = Homo sapiens, 22Rv1, 22Rv1, cell viability
EC50 (U2OS),EC50 (U2OS; Homo sapiens),EC50 (PC3; [1]),"EC50 (PC3; PC3, cell viability)",EC50 (A549),EC50 (Huh-7 cells; [2]),EC50 (Huh-7 cells; [3]),EC50 (Huh-7 cells; [4]),EC50 (22Rv1; [5]),"EC50 (Huh-7 cells; Huh-7 cells, antiproliferative activity, read-out: EC50 in Huh-7 cells)","EC50 (22Rv1; 22Rv1, cell viability)",SMILES,"screening of electrophilic small molecules, viability of Huh-7 cells (Huh-7 cells; 10 μM with or without Fer-1 (10 μM))"
130 nM,133 nM,193 nM,190 nM,30 nM,30 nM,32 nM,32 nM,40 nM,,,"CN(C(=O)CBr)c1ccccc1C(=O)c1ccccc1 [IITK3002, N-(2-benzoylphenyl)-2-bromo-N-methylacetamide]",
,1290 nM,1110 nM,,700 nM,44 nM,43.6 nM,,420 nM,60 nM,,"C#CCN(C(=O)CCl)c1ccccc1C(=O)c1ccccc1 [IITK3003, N-(2-benzoylphenyl)-2-chloro-N-(prop-2-yn-1-yl)acetamide]",
350 nM,355 nM,348 nM,350 nM,610 nM,,233 nM,233 nM,148 nM,,150 nM,"CN(C(=O)CCl)c1ccccc1C(=O)c1ccccc1 [IITK3001, N-(2-benzoylphenyl)-2-chloro-N-methylacetamide]",potent inhibitors of Huh-7 cells
